# Assays:
# Acetylcholinesterase [1] = target: Acetylcholinesterase (Electrophorus electricus, UniProt O42275)
# Description: Inhibition of Electrophorus electricus AChE using acetylthiocholine iodide as substrate by spectroscopic Ellmans method
# Acetylcholinesterase [2] = target: Acetylcholinesterase (Homo sapiens, UniProt P22303)
# Description: Inhibition of recombinant human AChE using acetylthiocholine iodide as substrate by spectroscopic Ellmans method
# Cholinesterase = Cholinesterase (Homo sapiens, UniProt P06276)
# Chain of Cholinesterase (P06276 whole entry): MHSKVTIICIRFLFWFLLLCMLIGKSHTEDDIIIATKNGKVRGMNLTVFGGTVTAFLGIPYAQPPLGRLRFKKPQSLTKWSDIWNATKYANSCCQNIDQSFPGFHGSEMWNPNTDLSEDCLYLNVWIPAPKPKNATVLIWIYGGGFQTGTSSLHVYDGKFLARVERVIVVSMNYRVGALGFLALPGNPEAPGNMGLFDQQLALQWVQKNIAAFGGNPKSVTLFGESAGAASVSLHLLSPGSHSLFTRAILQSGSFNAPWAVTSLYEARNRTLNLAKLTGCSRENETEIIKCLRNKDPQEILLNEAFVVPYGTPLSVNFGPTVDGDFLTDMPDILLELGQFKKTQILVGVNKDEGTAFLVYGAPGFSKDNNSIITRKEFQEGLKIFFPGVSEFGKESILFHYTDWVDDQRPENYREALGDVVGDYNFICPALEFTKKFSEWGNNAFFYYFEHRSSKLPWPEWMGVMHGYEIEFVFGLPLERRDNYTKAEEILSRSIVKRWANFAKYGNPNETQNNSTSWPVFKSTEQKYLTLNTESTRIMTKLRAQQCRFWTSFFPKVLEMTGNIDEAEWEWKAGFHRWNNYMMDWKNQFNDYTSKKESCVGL
# Description: Inhibition of recombinant human serum BChE using butyrylthiocholine iodide as substrate by spectroscopic Ellmans method
# Chain of Acetylcholinesterase (Homo sapiens, UniProt P22303) (P22303 whole entry): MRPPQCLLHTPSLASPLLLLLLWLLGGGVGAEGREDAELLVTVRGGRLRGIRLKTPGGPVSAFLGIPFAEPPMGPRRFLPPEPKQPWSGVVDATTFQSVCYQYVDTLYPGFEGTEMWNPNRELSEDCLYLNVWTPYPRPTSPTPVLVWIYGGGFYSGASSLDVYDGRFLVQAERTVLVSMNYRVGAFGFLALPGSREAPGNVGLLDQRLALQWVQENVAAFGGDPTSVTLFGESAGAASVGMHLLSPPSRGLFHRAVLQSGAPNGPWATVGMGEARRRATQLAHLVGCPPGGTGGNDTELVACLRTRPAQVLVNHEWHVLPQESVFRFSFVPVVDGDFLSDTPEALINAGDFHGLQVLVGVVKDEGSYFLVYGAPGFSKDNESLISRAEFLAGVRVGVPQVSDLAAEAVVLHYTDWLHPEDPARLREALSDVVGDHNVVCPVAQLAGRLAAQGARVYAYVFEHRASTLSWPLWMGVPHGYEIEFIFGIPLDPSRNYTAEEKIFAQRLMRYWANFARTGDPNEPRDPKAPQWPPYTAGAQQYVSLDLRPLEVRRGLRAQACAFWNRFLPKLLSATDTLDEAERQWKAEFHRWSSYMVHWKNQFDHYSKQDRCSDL
# Chain of Acetylcholinesterase (Electrophorus electricus, UniProt O42275) (O42275 whole entry): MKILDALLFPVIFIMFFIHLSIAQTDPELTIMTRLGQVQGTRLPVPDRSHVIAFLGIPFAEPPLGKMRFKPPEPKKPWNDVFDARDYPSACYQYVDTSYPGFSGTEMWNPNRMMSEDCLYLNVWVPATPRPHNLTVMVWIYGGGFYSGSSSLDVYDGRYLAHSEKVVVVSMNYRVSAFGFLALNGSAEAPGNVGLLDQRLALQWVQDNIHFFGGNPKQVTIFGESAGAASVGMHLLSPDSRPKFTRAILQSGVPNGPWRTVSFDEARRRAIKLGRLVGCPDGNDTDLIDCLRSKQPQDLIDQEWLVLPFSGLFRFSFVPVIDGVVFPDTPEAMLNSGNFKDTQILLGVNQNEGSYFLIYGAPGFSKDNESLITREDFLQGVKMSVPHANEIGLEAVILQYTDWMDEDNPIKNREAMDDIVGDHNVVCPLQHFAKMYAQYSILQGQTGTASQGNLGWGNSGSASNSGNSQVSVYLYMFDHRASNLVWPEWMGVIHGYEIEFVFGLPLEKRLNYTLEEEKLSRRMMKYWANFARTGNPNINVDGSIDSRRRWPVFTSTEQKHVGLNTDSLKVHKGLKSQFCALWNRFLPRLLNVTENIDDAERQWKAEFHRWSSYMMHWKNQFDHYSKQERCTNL
Compound,IC50 (Acetylcholinesterase [1]) [nM],IC50 (Acetylcholinesterase [2]) [nM],IC50 (Cholinesterase) [nM]
CC(C)C1=N[C@H]2CC[C@]34C[C@]35C(=O)C[C@]3(C)[C@@H]([C@H](C)N(C)Cc6ccccc6C(F)(F)F)[C@H](O)C[C@@]3(C)[C@@H]5CC[C@H]4[C@]2(C)CS1,24,11,> 10000
CC(C)C1=N[C@H]2CC[C@]34C[C@]35C(=O)C[C@]3(C)[C@@H]([C@H](C)N(C)Cc6ccccc6)[C@H](O)C[C@@]3(C)[C@@H]5CC[C@H]4[C@]2(C)CS1,13,7,554
CCN1C[C@]2(C)[C@H](CC=C3C[C@H]4C(=O)C[C@]5(C)[C@@H]([C@H](C)N(C)C)[C@H](O)C[C@@]5(C)[C@@H]4CC[C@H]32)N=C1C(C)C,> 10000,> 10000,3330
CN[C@@H](C)[C@H]1[C@H](O)C[C@@]2(C)[C@@H]3CC[C@H]4[C@]5(C)CSC(C(C)C)=N[C@H]5CC[C@@]45C[C@@]35C(=O)C[C@]12C,45,76,1340
CC(C)C1=N[C@H]2CC[C@]34C[C@]35C(=O)C[C@]3(C)[C@@H]([C@H](C)N(C)Cc6ccc(C(F)(F)F)cc6)[C@H](O)C[C@@]3(C)[C@@H]5CC[C@H]4[C@]2(C)CS1,7,3,> 10000
CC(C)C1=N[C@H]2CC[C@]34C[C@]35C(=O)C[C@]3(C)[C@@H]([C@H](C)N(C)C)[C@H](O)C[C@@]3(C)[C@@H]5CC[C@H]4[C@]2(C)C=C1,16,25,679
CC(C)C1=N[C@H]2CC[C@]34C[C@]35C(=O)C[C@]3(C)[C@@H]([C@H](C)N(C)CCCc6ccccc6)[C@H](O)C[C@@]3(C)[C@@H]5CC[C@H]4[C@]2(C)CS1,79,76,1430
CC(C)C1=N[C@H]2CC[C@]34C[C@]35C(=O)C[C@]3(C)[C@@H]([C@H](C)N(C)C)[C@H](O)C[C@@]3(C)[C@@H]5CC[C@H]4[C@]2(C)CN1C,> 10000,> 10000,2950
CC(=O)N(C)[C@@H](C)[C@H]1[C@H](O)C[C@@]2(C)[C@@H]3CC[C@H]4[C@]5(C)CSC(C(C)C)=N[C@H]5CC[C@@]45C[C@@]35C(=O)C[C@]12C,139,298,> 10000
CC(C)C1=N[C@H]2CC[C@]34C[C@]35C(=O)C[C@]3(C)[C@@H]([C@H](C)N(C)CCN6C(=O)c7ccccc7C6=O)[C@H](O)C[C@@]3(C)[C@@H]5CC[C@H]4[C@]2(C)CS1,24,70,653
CC(C)C1=N[C@H]2CC[C@]34C[C@]35C(=O)C[C@]3(C)[C@@H]([C@H](C)N(C)CCc6ccccc6)[C@H](O)C[C@@]3(C)[C@@H]5CC[C@H]4[C@]2(C)CS1,14,20,501
COc1ccc(CN(C)[C@@H](C)[C@H]2[C@H](O)C[C@@]3(C)[C@@H]4CC[C@H]5[C@]6(C)CSC(C(C)C)=N[C@H]6CC[C@@]56C[C@@]46C(=O)C[C@]23C)cc1,18,9,217
COc1cccc(CN(C)[C@@H](C)[C@H]2[C@H](O)C[C@@]3(C)[C@@H]4CC[C@H]5[C@]6(C)CSC(C(C)C)=N[C@H]6CC[C@@]56C[C@@]46C(=O)C[C@]23C)c1,6,3,477
CC(C)C1=N[C@H]2CC[C@]34C[C@]35C(=O)C[C@]3(C)[C@@H]([C@H](C)N(C)C)[C@H](O)C[C@@]3(C)[C@@H]5CC[C@H]4[C@]2(C)CC1,294,618,> 10000
C[C@@H]([C@H]1[C@H](O)C[C@@]2(C)[C@@H]3CC[C@H]4[C@]5(C)COC(C(F)(C(F)(F)F)C(F)(F)F)=N[C@H]5CC[C@@]45C[C@@]35C(=O)C[C@]12C)N(C)C,1700,3000,> 10000
CC(C)C1=N[C@H]2CC[C@]34C[C@]35C(=O)C[C@]3(C)[C@@H]([C@H](C)N(C)C(=O)c6ccccc6)[C@H](O)C[C@@]3(C)[C@@H]5CC[C@H]4[C@]2(C)CS1,37,43,> 1000
CC(C)C1=N[C@H]2CC[C@]34C[C@]35C(=O)C[C@]3(C)[C@@H]([C@H](C)N(C)C)[C@H](O)C[C@@]3(C)[C@@H]5CC[C@H]4[C@]2(C)CS1,38,60,5370
CC(C)C1=N[C@H]2CC[C@]34C[C@]35C(=O)C[C@]3(C)[C@@H]([C@H](C)N(C)CCCN6C(=O)c7ccccc7C6=O)[C@H](O)C[C@@]3(C)[C@@H]5CC[C@H]4[C@]2(C)CS1,14,14,224
C[C@@H]([C@H]1[C@H](O)C[C@@]2(C)[C@@H]3CC[C@H]4[C@]5(C)COC(C(C)(C)F)=N[C@H]5CC[C@@]45C[C@@]35C(=O)C[C@]12C)N(C)C,336,744,> 10000
CC(C)C1=N[C@H]2CC[C@]34C[C@]35C(=O)C[C@]3(C)[C@@H]([C@H](C)N(C)Cc6cccc(C(F)(F)F)c6)[C@H](O)C[C@@]3(C)[C@@H]5CC[C@H]4[C@]2(C)CS1,9,3,> 10000
CC(C)C1=N[C@H]2CC[C@]34C[C@]35C(=O)C[C@]3(C)[C@@H]([C@H](C)N(C)C(=O)OC(C)(C)C)[C@H](O)C[C@@]3(C)[C@@H]5CC[C@H]4[C@]2(C)CS1,186,159,> 10000
C[C@@H]([C@H]1[C@H](O)C[C@@]2(C)[C@@H]3CC[C@H]4[C@]5(C)COC(C(F)(F)F)=N[C@H]5CC[C@@]45C[C@@]35C(=O)C[C@]12C)N(C)C,> 10000,> 10000,> 10000
CC(C)C1=N[C@H]2CC[C@]34C[C@]35C(=O)C[C@]3(C)[C@@H]([C@H](C)N(C)C)[C@H](O)C[C@@]3(C)[C@@H]5CC[C@H]4[C@]2(C)CN1,> 10000,–,–
CC(C)C1=N[C@H]2CC[C@]34C[C@]35C(=O)C[C@]3(C)[C@@H]([C@H](C)N(C)C)[C@H](O)C[C@@]3(C)[C@@H]5CC[C@H]4[C@]2(C)N1,> 10000,> 10000,7220
COc1ccccc1CN(C)[C@@H](C)[C@H]1[C@H](O)C[C@@]2(C)[C@@H]3CC[C@H]4[C@]5(C)CSC(C(C)C)=N[C@H]5CC[C@@]45C[C@@]35C(=O)C[C@]12C,12,6,333

# Source: ChEMBL document CHEMBL1781893, “New potent human acetylcholinesterase inhibitors in the tetracyclic triterpene series with inhibitory potency on amyloid β aggregation” (Eur J Med Chem, 2011)
